Test results as given in PubChem BioAssay (NCI).
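Tested at 5 concentrations; 48 h exposure; 96-well plates; endpoints linearly interpolated, else capped at highest concentration. The concentration for 50% growth inhibition is given as GI50. TGI: concentration producing complete growth inhibition.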

How the values were obtained:
Assay in all cases: NCI tumour cell line growth inhibition, 48 h
[1] = system: DU-145 prostate
[2] = system: HCT-15 colon
[3] = system: NCI-H23 lung
[4] = system: OVCAR-5 ovarian
[5] = system: OVCAR-8 ovarian
[6] = system: RXF 393 renal
[7] = system: SF-268 CNS
[8] = system: SF-295 CNS
[9] = system: SK-MEL-5 melanoma
[10] = system: SR leukemia

| SMILES | GI50 [1] [µM] | TGI [1] [µM] | GI50 [2] [µM] | TGI [2] [µM] | GI50 [3] [µM] | TGI [3] [µM] | GI50 [4] [µM] | TGI [4] [µM] | GI50 [5] [µM] | TGI [5] [µM] | GI50 [6] [µM] | TGI [6] [µM] | GI50 [7] [µM] | TGI [7] [µM] | GI50 [8] [µM] | TGI [8] [µM] | TGI [9] [µM] | TGI [10] [µM] | GI50 [9] [µM] |
| --- | --- | --- | --- | --- | --- | --- | --- | --- | --- | --- | --- | --- | --- | --- | --- | --- | --- | --- | --- |
| c1ccc2cc(C[n+]3ccn(CCCCCCCCCCn4cc[n+](Cc5ccc6ccccc6c5)c4)c3)ccc2c1 | 1.06 | 14.1 | 3.76 | > 100 | 0.445 | 3.35 | 1.87 | 9.48 | 2.18 | 13.1 | 0.822 | 3.72 | 0.61 | 12.3 | 0.554 | 5.44 | – | – | – |
| CC1(c2ccccc2)CC(c2cccc([N+](=O)[O-])c2)=NO1 (centres undefined) | – | – | – | > 100 | – | > 100 | – | > 100 | – | > 100 | – | – | – | > 100 | – | > 100 | > 100 | > 100 | – |
| Cc1ccc(S(=O)OCC23CC4CC(CC(C4)C2)C3)cc1 (centres undefined) | – | – | – | > 100 | – | > 100 | – | > 100 | – | > 100 | – | > 100 | – | > 100 | – | > 100 | > 100 | > 100 | – |
| CCCCCCCCCCCCOC1C(CNC(=O)C2OC3OC(C)(C)OC3C2NC(=O)Nc2ccc(CC(=O)NC(Cc3ccccc3)C(=O)O)cc2)OC2OC(C)(C)OC21 (centres undefined) | > 25 | > 25 | > 25 | > 25 | > 25 | > 25 | > 25 | > 25 | > 25 | > 25 | 13.3 | > 25 | > 25 | > 25 | > 25 | > 25 | > 25 | – | > 25 |
| O=C1CCSC2=C1SCc1sccc12 | – | – | – | > 100 | – | > 100 | – | > 100 | – | > 100 | – | > 100 | – | > 100 | – | > 100 | > 100 | – | – |
| OCCN1CCN2C=C(C3CCCC4N(CCO)CCN34)CCC21 (centres undefined) | – | – | – | > 100 | – | > 100 | – | > 100 | – | > 100 | – | > 85 | – | > 100 | – | > 100 | > 100 | 26.3 | – |
| COc1ccc(-n2ccnc2-c2cc(OC)c(OC)c(OC)c2)cc1 | 6.66 | > 100 | 1.53 | > 100 | 3.3 | 65 | 10.1 | > 100 | 4.71 | > 100 | 1.87 | 11.9 | 8.69 | > 100 | 1.99 | 8.35 | 11.1 | – | 1.91 |
| COc1ccc(C(=O)C(c2ccc(OCc3ccccc3)cc2)c2ccc(OCc3ccccc3)cc2)cc1 | – | – | – | > 100 | – | > 100 | – | > 100 | – | > 100 | – | > 100 | – | > 100 | – | > 100 | > 100 | > 100 | – |
| CCN(CC)Cc1c(/C=C\c2cc(OC)c(OC)c(OC)c2)ccc(OC)c1O | – | 39.7 | – | 34.8 | – | 14.3 | – | > 100 | – | 63.2 | – | 9.35 | – | 52.2 | – | 32.1 | > 83.7 | – | – |
| O=C(Nc1ccccc1)c1cc(S(=O)(=O)Nc2nc3ccccc3o2)c(SCc2ccccc2)cc1Cl | 16.5 | 32.4 | 17 | 34 | 21.2 | 44.9 | 22.5 | 43.3 | 24.5 | 65 | 19.7 | 47.7 | 15.4 | 41.4 | 18.5 | 33 | 28 | – | 14.1 |
| NNC(=O)N/N=C1\C(=O)N(c2ccc(Cl)c(Cl)c2)C(=O)C(=O)C1c1nc2ccccc2s1 (centres undefined) | – | – | – | > 100 | – | > 100 | – | – | – | > 100 | – | > 100 | – | > 100 | – | > 100 | > 100 | > 100 | – |
| Cc1ccc(NC(=O)/C(Cl)=C(/Cl)C(=O)O)cc1 | – | – | – | 28.9 | – | 31.8 | – | 37.6 | – | – | – | 45.8 | – | 42 | – | 96.8 | 55.2 | 53.6 | – |
| CC(=O)[CH-]C(=O)c1ccccc1.CC(=O)[CH-]C(=O)c1ccccc1.C[C@]12CCC(=O)C=C1CC[C@@H]1C2CC[C@@]2(C)C1CC[C@@H]2[O-].C[C@]12CCC(=O)C=C1CC[C@@H]1C2CC[C@@]2(C)C1CC[C@@H]2[O-].Cl.[Ti+4] (some centres undefined) | – | – | 15.2 | 43 | 16.2 | 32.1 | 11.8 | 55.8 | 22.6 | 93.6 | 16.2 | 31.9 | – | – | – | – | 32 | – | 11.3 |
| CC(C)NC(=O)CCN(C(=O)O)S(=O)(=O)c1ccc(NC(=O)c2ccccc2)cc1 | – | – | – | > 59.8 | – | > 100 | – | > 100 | – | > 94.7 | – | > 100 | – | > 100 | – | > 100 | > 100 | > 83 | – |
| N/N=c1\c2ccccc2c2cc3c(cc12)/c(=N/N)c1ccccc13 | – | – | – | > 100 | – | > 100 | – | > 100 | – | > 100 | – | > 100 | – | > 100 | – | > 100 | > 100 | > 100 | – |
| O=S(=O)(/N=c1/scc(-c2ccccc2)n1-c1ccccc1)c1ccc(N2N=C3c4ccccc4CC3C2c2cccs2)cc1 (centres undefined) | > 100 | > 100 | 67.3 | > 100 | 68 | > 100 | 88.9 | > 100 | 47.2 | > 100 | 98.2 | > 100 | > 100 | > 100 | 54.5 | > 100 | > 100 | – | 48 |
| CC#CC1C2CCCC1(CSc1ccccc1)NC(=O)O2 (centres undefined) | – | – | – | > 100 | – | > 100 | – | > 100 | – | > 100 | – | > 100 | – | > 100 | – | > 100 | > 100 | > 100 | – |
| Clc1ccc(-c2c(C3=NCCCN3)nnn2-c2ccccc2)cc1 | – | – | – | > 100 | – | > 100 | – | > 100 | – | > 100 | – | > 100 | – | > 100 | – | > 100 | > 100 | > 100 | – |
